The source of these data is paper PMC8510601, “Discovery of benzamide-hydroxypyridinone hybrids as potent multi-targeting agents for the treatment of Alzheimer's disease” (Journal of Enzyme Inhibition and Medicinal Chemistry, 2021).

Data set [1] in a line: PAMPA-BBB assay. On the technique in general: PAMPA measures passive passage across an artificial lipid membrane.
Data set [2] is described as follows: Iron-chelating activity test: affinity constants for Fe3+ and pFe3+.
Data set [3] concerns scopolamine-induced cognitive dysfunction ICR mice. The experiment in a line: Morris water maze test, scopolamine-induced cognitive dysfunction. The note with it: MWM last day, test agent 15 mg/kg i.p. + scopolamine 15 mg/kg i.p., 15 days, n = 8, mean ± SEM.
Protocol: The MWM test was performed at the last 5 days including two days of memory and learning training, three days of cognitive assessment. On the fifth day, a probe training trial was performed and analysed. […] However, the dosage of scopolamine was increased from 5 mg/kg to 15 mg/kg to achieve a better modelling effect.
Cognitive and memory assays in vivo
The adult female ICR mice (8-10 weeks old, weight 20-25 g) were obtained from the
Zhejiang Academy of Medical Sciences (Hangzhou, China).
agents were prepared as clear injections, consisting of 10% DMSO, 20%
(2-hydroxypropyl)-β-cyclodextrin and PBS. The mice were trained to find the platform (10 cm
diameter) in the opaque circular pool (120 cm diameter, 60 cm height) filled with water (40 cm,
depth), which was described in detail in our previous study.[1] All mice received at least one
training session daily in four quadrants for four consecutive days before testing of finding the
The mice were randomly divided into four groups: (i) control group (PBS of 20%
were intraperitoneally injected with indicated compounds or solvent 30 min before intraperitoneal
injection with scopolamine or PBS once a day for 15 consecutive days. The Morris water maze
test was performed at the last 5 days.
Data set [4] addresses T1, MAO-B (Homo sapiens, UniProt P27338).
T1 sequence (P27338 1-520): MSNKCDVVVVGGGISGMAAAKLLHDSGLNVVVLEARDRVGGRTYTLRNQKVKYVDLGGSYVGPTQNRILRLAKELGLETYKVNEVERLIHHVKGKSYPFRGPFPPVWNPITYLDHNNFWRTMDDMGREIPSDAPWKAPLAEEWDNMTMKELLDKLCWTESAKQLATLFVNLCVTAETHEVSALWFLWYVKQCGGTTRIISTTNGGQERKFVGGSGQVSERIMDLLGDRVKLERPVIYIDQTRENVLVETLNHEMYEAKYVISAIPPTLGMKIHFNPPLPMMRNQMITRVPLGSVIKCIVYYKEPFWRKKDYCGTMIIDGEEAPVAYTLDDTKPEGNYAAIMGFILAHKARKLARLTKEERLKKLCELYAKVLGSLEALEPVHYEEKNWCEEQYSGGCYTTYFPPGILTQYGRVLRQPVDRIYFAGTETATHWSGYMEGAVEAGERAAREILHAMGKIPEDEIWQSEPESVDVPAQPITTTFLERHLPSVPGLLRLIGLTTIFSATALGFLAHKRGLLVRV
The experiment in a line: Human MAO-B inhibition assay. The format is biochemical.

The target in data set [5] is T2, MAO-A (Homo sapiens, UniProt P21397).
T2 sequence (P21397 1-527): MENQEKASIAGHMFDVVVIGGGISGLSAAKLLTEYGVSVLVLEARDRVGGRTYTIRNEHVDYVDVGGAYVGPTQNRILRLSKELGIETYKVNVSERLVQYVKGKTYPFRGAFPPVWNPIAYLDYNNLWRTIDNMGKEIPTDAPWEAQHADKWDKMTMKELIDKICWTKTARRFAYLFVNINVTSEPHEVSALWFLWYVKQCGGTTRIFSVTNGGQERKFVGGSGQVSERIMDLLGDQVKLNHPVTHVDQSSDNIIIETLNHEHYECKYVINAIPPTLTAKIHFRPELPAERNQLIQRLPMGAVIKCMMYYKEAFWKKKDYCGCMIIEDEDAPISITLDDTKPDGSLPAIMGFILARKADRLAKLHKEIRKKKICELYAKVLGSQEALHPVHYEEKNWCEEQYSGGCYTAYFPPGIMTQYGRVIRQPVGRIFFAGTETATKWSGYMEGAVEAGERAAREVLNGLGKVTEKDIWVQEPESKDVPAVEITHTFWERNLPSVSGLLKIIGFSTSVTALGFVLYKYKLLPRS
Put plainly: Human MAO-A inhibitory assay. The note with it: read-out: IC50 ± SEM MAO-A. The class given is biochemical.

Data set [6] deals with PC12 cells. Put plainly: Intracellular ROS detection (DCFH-DA), Aβ1–42-induced. The format is cell-based. The note with it: 8g and Aβ1–42 10 μM, flow cytometry. As for the experimental part: Aβ deposition and peroxidation are also important clinical features of AD. Therefore, we subsequently assessed the antioxidation of compound 8g, using 2′,7′-dichlorofluorescin diacetate (DCFH-DA) to detect intracellular ROS generation on the PC12 cell line derived from neural pheochromocytoma. Based on our previous research, the concentration of 10 μM of compound 8g was chosen in this test. […]
8. Intracellular ROS detection
(In flow cytometry, cells or beads pass a laser one at a time.)

The nature of data set [7]: pKa determination by spectrophotometric titration. The note with it: 0.1 M KCl aqueous solution, pH range 2.0–10.5, 25 °C.

As a reminder, the melting point is the temperature, or range, at which the solid turns liquid. In general, Papp refers to a coefficient for how fast a substance crosses the barrier. Low readings indicate slow passage, high ones fast passage. The term IC50 denotes the concentration that gives 50% inhibition. As usually defined, the pKa is the pH at which an ionisable group is half protonated. On to `Cc1c(O)c(=O)ccn1CCNC(=O)c1ccc(OCc2ccccc2)cc1` [Compound 8g], for which the melting point lay within 246 to 248 °C. Moreover, the Papp at 6 h, 25 μg/mL in data set [1] (PAMPA) was 4.07 ± 0.44 ×10⁻⁶ cm/s. Further, in data set [1] (from Pe in PAMPA-BBB), the “Prediction of CNS penetrability” value is listed as “CNS + (CNS +: Pe (10^–6 cm/s) > 4.0, high BBB permeability)”. Besides, in data set [1] (porcine brain lipid, 6 h at 25 °C, eight independent experiments), the “Pe ± SEM” value is on record as > 4.0 10^–6 cm/s. Moreover, in data set [2] (KCl (0.1 M): DMSO = 3:2 (v/v)), the “Log β2” value stood at 26.04 and the “Log β3” value came to 35.65. For the same molecule, the “Log β1” value in data set [2] (KCl (0.1 M): DMSO = 9:1 (v/v)) amounted to 14.60. The “pFe^3+” value in data set [2] (pH 7.4, [Fe3+]total = 10^−6 M, [ligand]total = 10^−5 M, calculated from pKa and log β measured in KCl/DMSO) is 19.31. In addition, in data set [3], the “Distance to the target” value is on record as 2.64 ± 0.52 m and the “Entries to the target” value came out at 4.12 ± 0.40. Also, the inhibition at 0.1 µM in data set [4] (100 nM, read-out: Inhibitory rate ± SEM (%, 100 nM)) is > 50%. The inhibition at 1 µM in data set [4] (1 μM, read-out: Inhibitory rate ± SEM (%, 1 μM)) was found to be 78.29 ± 0.16%. Further, in data set [4] (selectivity for the MAO-B isoform), the “SI (selectivity index) = IC50 (MAO-A)/IC50 (MAO-B)” value stood at 213. Besides, the half-maximal inhibitory concentration (IC50) in data set [4] (± SEM, read-out: IC50 against MAO-B) is 0.0684 ± 0.00605 µM. Also, the IC50 in data set [5] turned out to be 14.6 ± 0.231 µM. In data set [6], the “ROS %Gated (percentage of positive cells in the total number of cells)” value came to 33.32% and the “ROS Mean (average fluorescence intensity of all cells)” value came out at 106.35. The pKa in data set [7] (KCl (0.1 M)) stood at 3.38. Moreover, in data set [7] (pKa2, KCl (0.1 M)), the pKa was 9.69.
